# Data as given in publication PMC6831611, “Proof-of-Concept Study of Drug Brain Permeability Between in Vivo Human Brain and an in Vitro iPSCs-Human Blood-Brain Barrier Model” (Scientific Reports, 2019).
# “Also recorded” adds a separate entry of the source. Read-outs that look alike come from different tables or passages of the source.
# Assays:
# human brain (BBB) = conditions: PET, cited from earlier work; for K1, rate constant for transfer from arterial plasma into brain: human brain; for cerebral uptake / brain distribution in human brain (in words): in vivo, ref S1 Table 1
# iPSC-hBBB monolayer = assay: Apparent permeability (Papp A to B) across the in vitro iPSC-hBBB model; conditions: iPSC-hBBB model, PappAB
# Protocol: (§1) On day before the co-culture establishment, rat glial cells (2 × 10^4 cells) isolated as described previously[6] were plated on 12 wells plate (Costar) in glial specific medium. After 24 hours, hiPSC-BECs (6 × 10^4cells) were plated on the upper side of a collagen-coated polyester Transwell membrane (Costar, pore size 0.4 µm; diameter 12 mm; insert growth area 1 cm^2) in 0.5 mL of endothelial medium.
# (§2) Experiments were performed in triplicate for each compound.
# (§3) For LC-MS/MS a sample aliquot (transfer buffer) was diluted by half with acetonitrile and then, 10 μL of this solution was injected into the analytical equipment made up a Liquid Chromatography system coupled to a triple quadrupole mass spectrometer Thermofisher TS Quantum Discovery or Waters Quattro Premier XE equipped with a electrospray ionization source. System control and data processing were carried out using Xcalibur or Masslynx software. The chromatographic separation was performed on a Waters ACQUITY UPLC BEH C18 column (2.1 mm × 50 mm, 1.7 μm) at 60 °C. A gradient of two solvent mixtures was delivered at 0.3 mL/min or 0.5 mL/min according to the analytical system. Solvent A comprised 0.1% formic acid in ammonium acetate (5 mM) and solvent B, 0.1% formic acid in acetonitrile. Molecules were ionized in positive mode. Multiple reaction monitoring mode was used for compounds quantification. For all tested compounds, a linear gradient of mobile phase A and B was optimized. Linearity of the response was verified in the range 0.05 to 5 µM through 3 experiments to be able to measure low passage. Quantification was carried out using standard calibration curve and quality control samples prepared with blank matrix (transfer buffer/acetonitrile; 1/1; v/v) spiked with compounds.
# [1] = system: in vitro primary cell-based rat BBB model; assay: Apparent permeability in the in vitro primary cell-based rat BBB model; conditions: in vitro cell based rat BBB model vs iPSC-hBBB model
# From the text: We previously described an in vitro primary cell-based rat BBB model with relevant features of the in vivo rat BBB[6]. We therefore analyzed correlatively the permeability of a set of compounds obtained using the in vitro iPSC-hBBB model and the in vitro cell based rat BBB model.
# [2] = system: ABC transporters in the in vitro primary rat cell based BBB model
# [3] = system: ABC transporters (P-gp) in the iPSC-hBBB model
# Protocol: (§4) A known P-gp substrate was used to assess the asymmetry index of the iPSC- hBBB model.
# (§5) The integrity of iPSC-derived human BBB model was determined by assessment of radiolabelled sucrose permeability as a paracellular marker. The transwells with hiPSC-BECs monolayers were transferred to new 12 well plates. […] After 1 hour of incubation at 37 °C with gentle rotation, 100 µL of transfer buffer from both A and B compartments were collected and counted by scintillation. The Papp value was calculated as followed: Papp=dQ/dTXAXC0 where dQ/dT is the amount of compound transported per time point; A is the membrane surface area of the insert; and Co is the donor concentration at the time point. Data were presented as the average ± SD from three monolayers. […] The propranolol permeability was also tested using the same protocol with an apical tested dose about 1 µCi/mL (48 nM) of [^3H]propranolol in transfer buffer. […] After checking the cell monolayer integrity, the monolayers were transferred to new plates. The buffer (150 mM NaCl, 5.2 mM KCl, 2.2 mM CaCl2, 0.2 mM MgCl2, 6 mM NaHCO3, 2.8 mM glucose and 5 mM Hepes) was added: 1.5 mL to the basal chamber (B) and 0.5 mL to the apical chamber (A). Experiments were performed in triplicate for each compound. […] After 60 min, aliquots were removed from the acceptor and basal chambers for drug-concentration determination by LC-MS/MS.
# [4] = Apparent permeability (Papp A to B) across the in vitro iPSC-hBBB model; conditions: human
# Protocol: as §1, §2, §3
# ABC transporters (P-gp) = assay: in vitro; conditions: human, PappBA/PappAB efflux ratio (ER)
# Protocol: as §4, §5
# ABC transporters = assay: in vitro; conditions: rat
Compound,in vitro permeability across the iPSC-hBBB model (in words) (iPSC-hBBB monolayer),permeability in the rat BBB model compared with the iPSC-hBBB model (in words) [1],"K1, rate constant for transfer from arterial plasma into brain (human brain (BBB)) [mL.cm-3.min-1]",ABC transporter substrate / interaction (in words) [3],further results
COC[C@H]1CN(c2ccc(OCC[C@@H](O)C(F)(F)F)cc2)C(=O)O1 [befloxatone],high permeability,–,–,–,"K1, rate constant for transfer from arterial plasma into brain (human brain (BBB); ref unpublished data): 0.20 mL.cm-3.min-1; cerebral uptake / brain distribution in human brain (in words) (human brain (BBB)): high cerebral uptake"
Cn1c(=O)c2c(ncn2C)n(C)c1=O [caffeine],–,higher,–,–,–
COc1ccc2c(c1)[C@]13CCCC[C@@H]1[C@H](C2)N(C)CC3 [dextromethorphan],–,higher,–,–,–
C#Cc1cccc(Nc2ncnc3cc(OCCOC)c(OCCOC)cc23)c1 [erlotinib],high permeability,–,0.02,not in the in vitro iPSC-hBBB model,ABC transporter substrate / interaction (in words) [2]: apparently an ABC transporter substrate; cerebral uptake / brain distribution in human brain (in words) (human brain (BBB)): low cerebral uptake
CN(C)C(=O)C(CCN1CCC(O)(c2ccc(Cl)cc2)CC1)(c1ccccc1)c1ccccc1 [loperamide],low apparent permeability,higher,0.002,likely to be also ABC transporter substrates; also recorded: apparently interacted with ABC transporters,–
CC(C)NCC(O)COc1cccc2ccccc12 (stereo not shown) [propranolol],–,–,–,–,Papp A→B at 1 h [4]: 21.7 ± 3.1 ×10⁻⁶ cm/s
CCN1CCC[C@H]1CNC(=O)c1c(O)c(Cl)cc(Cl)c1OC [raclopride],–,–,0.09,–,–
CC[C@]1(O)C[C@@H]2CN(CCc3c([nH]c4ccccc34)[C@@](C(=O)OC)(c3cc4c(cc3OC)N(C)[C@H]3[C@@](O)(C(=O)OC)[C@H](OC(C)=O)[C@]5(CC)C=CCN6CC[C@]43[C@@H]65)C2)C1 [vinblastine],–,–,–,likely to be also ABC transporter substrates,efflux ratio at 60 min (ABC transporters (P-gp)): 1.55 ± 0.4; efflux ratio (ABC transporters): ≥ 1.25
